In patent US20060014712A1, “Controlled delivery of therapeutic compounds” (CeMines, Inc., priority 2004, published 2006):

How the values were obtained:
WM 266-4 [1] = test: WST-1 test (mitochondrial activity); format: cell-based, human; details: conc 10 µM, untreated = 1
Procedure: (§1) Methods. Human melanoma cell lines SK-MEL-28 and WM 2664 and mouse melanoma cell line B16 were obtained from the American Tissue Culture Collection (ATCC). Cells were cultured according to recommendations of ATCC (DMEM, 10% FCS, penicillin+streptomycin) and used in experiments after two passages in the laboratory. Cells were grown in 24 well plates, each treatment in triplicates. Cells were plated 16 hours prior treatments started. Peptides were added to the media, and media was changed every day during 7 day experiment. […] Methods. Human melanoma cell lines SK-MEL-28 and WM 266-4 were obtained from the American Tissue Culture Collection (ATCC) and were cultured according to recommendations of ATCC (DMEM, 10% FCS, penicillin+streptomycin). Human keratinocytes were obtained from Clonetics and cultured according to manufacturers protocol. Cells were used in experiments after two passages in the laboratory. Cells were grown in 24 well plates, each treatment in triplicates. Cells were plated 16 hours prior treatments started. Peptides were added to the media, and media was changed every day during 7 day experiment. […] WST-1 test was performed to measure mitochondrial activity, which can also be used as a measure of cell number.

SK-MEL-28 [2] = test: WST-1 test (mitochondrial activity); format: cell-based, human; details: conc 10 µM, untreated = 1
WM 266-4 [3] = test: Apoptosis, Annexin V-Cy3 Apoptosis Kit; format: cell-based, human; details: conc 10 µM
Procedure: as §1, with “Apoptosis” for “WST-1 test”, “analyzed using Biovision Annexin V-Cy3 Apoptosis Kit according” for “performed”, “manufacturers protocols.” for “measure mitochondrial activity, which can also be used as a measure of cell number.”

B16 = test: Apoptosis, Annexin V-Cy3 Apoptosis Kit; format: cell-based, mouse; details: CPP mimicking peptides, conc 10 µM
Procedure: Methods. Human melanoma cell lines SK-MEL-28 and WM 2664 and mouse melanoma cell line B16 were obtained from the American Tissue Culture Collection (ATCC). Cells were cultured according to recommendations of ATCC (DMEM, 10% FCS, penicillin+streptomycin) and used in experiments after two passages in the laboratory. Cells were grown in 24 well plates, each treatment in triplicates. Cells were plated 16 hours prior treatments started. Peptides were added to the media, and media was changed every day during 7 day experiment. CPP concentration was 10 μM Apoptosis was analyzed using Biovision Annexin V-Cy3 Apoptosis Kit according to manufacturers protocols.

WM 266-4 [4] = test: Cell counting after 7 day peptide treatment; format: cell-based, human; details: conc 10 µM, start count 10
Procedure: The ability to block interaction of MITF, SOX10 and STAT3 with active transcriptional complex and inhibit proliferation and stimulate apoptosis of melanoma cells were tested on human melanoma cell lines SK-MEL-28 and WM 266-4, and mouse melanoma cell line B16. Methods. Human melanoma cell lines SK-MEL-28 and WM 2664 and mouse melanoma cell line B16 were obtained from the American Tissue Culture Collection (ATCC). Cells were cultured according to recommendations of ATCC (DMEM, 10% FCS, penicillin+streptomycin) and used in experiments after two passages in the laboratory. Cells were grown in 24 well plates, each treatment in triplicates. Cells were plated 16 hours prior treatments started. Peptides were added to the media, and media was changed every day during 7 day experiment. […] Cells were precipitated and resuspended in 100 μl of PBS, and 5 μl were removed for counting Methods. Human melanoma cell lines SK-MEL-28 and WM 266-4 were obtained from the American Tissue Culture Collection (ATCC) and were cultured according to recommendations of ATCC (DMEM, 10% FCS, penicillin+streptomycin). Human keratinocytes were obtained from Clonetics and cultured according to manufacturers protocol. Cells were used in experiments after two passages in the laboratory. Cells were grown in 24 well plates, each treatment in triplicates. Cells were plated 16 hours prior treatments started. Peptides were added to the media, and media was changed every day during 7 day experiment. […] For cell counting, cells were trypsinized (0.25% Trypsin, 2 mM EDTA) in Ca, Mg free PBS. Cells were precipitated and resuspended in 100 μl of PBS, and 5 μl were removed for counting.

SK-MEL-28 [5] = test: Cell counting after 7 day peptide treatment; format: cell-based, human; details: conc 10 µM, start count 10
Procedure: The ability to block interaction of MITF, SOX10 and STAT3 with active transcriptional complex and inhibit proliferation and stimulate apoptosis of melanoma cells were tested on human melanoma cell lines SK-MEL-28 and WM 266-4, and mouse melanoma cell line B16. Methods. Human melanoma cell lines SK-MEL-28 and WM 2664 and mouse melanoma cell line B16 were obtained from the American Tissue Culture Collection (ATCC). Cells were cultured according to recommendations of ATCC (DMEM, 10% FCS, penicillin+streptomycin) and used in experiments after two passages in the laboratory. Cells were grown in 24 well plates, each treatment in triplicates. Cells were plated 16 hours prior treatments started. Peptides were added to the media, and media was changed every day during 7 day experiment. CPP concentration was 10 μM For cell counting, cells were trypsinized (0.25% Trypsin, 2 mM EDTA) in Ca^+2, Mg^+2 free PBS. Cells were precipitated and resuspended in 100 μl of PBS, and 5 μl were removed for counting Methods. Human melanoma cell lines SK-MEL-28 and WM 266-4 were obtained from the American Tissue Culture Collection (ATCC) and were cultured according to recommendations of ATCC (DMEM, 10% FCS, penicillin+streptomycin). Human keratinocytes were obtained from Clonetics and cultured according to manufacturers protocol. Cells were used in experiments after two passages in the laboratory. Cells were grown in 24 well plates, each treatment in triplicates. Cells were plated 16 hours prior treatments started. Peptides were added to the media, and media was changed every day during 7 day experiment. CPP concentration was 10 μM. For cell counting, cells were trypsinized (0.25% Trypsin, 2 mM EDTA) in Ca, Mg free PBS. Cells were precipitated and resuspended in 100 μl of PBS, and 5 μl were removed for counting.

Sequence: RPKKRKVRRRFNINDRIKELGTLIPKSNDPDMRWN [MITF-int1]
- WST-1 7 d (WM 266-4 [1]; CPP mimicking peptides): 0.8
- WST-1 7 d (SK-MEL-28 [2]; CPP mimicking peptides): 0.7
- Apoptosis 7 d/% (WM 266-4 [3]; CPP mimicking peptides): 21%
- Apoptosis 7 d/% (B16): 16%
- Cell Count 7 d (WM 266-4 [4]; CPP mimicking peptides): 30
- Cell Count 7 d (SK-MEL-28 [5]; CPP mimicking peptides): 39

Sequence: RPKKRKVRRRVKRPMNAFMVWAQAARRKLADQY [SOX10-int1]
- WST-1 7 d (WM 266-4 [1]; CPP mimicking peptides): 0.6
- WST-1 7 d (SK-MEL-28 [2]; CPP mimicking peptides): 0.51
- Apoptosis 7 d/% (WM 266-4 [3]; CPP mimicking peptides): 31%
- Apoptosis 7 d/% (B16): 12%
- Cell Count 7 d (WM 266-4 [4]; CPP mimicking peptides): 25
- Cell Count 7 d (SK-MEL-28 [5]; CPP mimicking peptides): 28

Sequence: TTGGSSPQGLEAKRPKKRKVRRRFNINDRIKELGTLIPKSNDPDMRWN [MITF-int1M]
- WST-1 7 d (WM 266-4 [1]; modified peptides): 0.8
- WST-1 7 d (SK-MEL-28 [2]; modified peptides): 0.81
- Apoptosis 7 d/% (WM 266-4 [3]; modified peptides): 21%
- Cell Count 7 d (WM 266-4 [4]; modified peptides): 25
- Cell Count 7 d (SK-MEL-28 [5]; modified (inhibitor/MMP2, MMP9 site) peptides): 42
